From patent publication US12568967B2, “Compositions comprising pyridine carboxylate herbicides with synthetic auxin herbicides or auxin transport inhibitors” (priority 2018, dated 2026)
“And” between values parts separate entries of the source, which are not always exact repeats. Identical values can stand only once.

What was measured:
[1] = system: Veronica persica (bird's-eye speedwell, VERPE); assay: Greenhouse postemergence trial VERPE; assay type: in vivo; settings: for % visual injury Obs / visual injury, Obs / % visual injury, Obs: VERPE; for % visual injury, Obs: applied alone
[2] = system: Veronica hederifolia (ivyleaf speedwell, VERHE); assay: Greenhouse postemergence trial VERHE; assay type: in vivo; settings: VERHE; for % visual injury, Obs: applied alone
Experimental: (§1) Seeds of the desired test plant species were planted in a 90:10% v/v (volume/volume) mixture of PRO-MIX® BX (Premier Tech Horticulture, Quakertown, PA, USA) and PROFILE® GREENS GRADE™ (Profile Products LLC, Buffalo Grove, IL, USA) planting mixture, which typically has a pH of 5.2 to 6.2 and an organic matter content of at least 50 percent, in plastic pots with a surface area of 103.2 square centimeters (cm^2). […] The plants were grown for 7-36 days (d) in a greenhouse with an approximate 14-hour (h) photo-period which was maintained at about 23° C. during the day and 22° C. during the night. Nutrients and water were added on a regular basis and supplemental lighting was provided with overhead metal halide 1000-Watt lamps as necessary. The plants were employed for testing when they reached the second or third true leaf stage.
(§2) Emulsifiable concentrates of each of each pyridine carboxylate herbicide (Compound A or Compound B) were prepared at 100 grams acid equivalent per liter (g ae/L). The emulsifiable concentrates also included a safener, cloquintocet-mexyl, at 120 grams active ingredient per liter (g ai/L), unless otherwise noted below. An aliquot of each emulsifiable concentrate was placed in a 25 mL glass vial and diluted with an aqueous mixture of 1.25% (v/v) ACTIROB® B esterified rapeseed oil (Bayer Crop Science, Research Triangle Park, NC, USA) or MSO® Concentrate with LECI-TECH® methylated soybean oil (Loveland Products, Loveland, CO, USA) to obtain concentrated stock solutions at the highest application rate for each herbicide, based upon a 12 milliliter (mL) application volume at a rate of 187 liters per hectare (L/ha). The concentrated stock solutions were further diluted with an aqueous mixture of 1.25% v/v ACTIROB® B or MSO® Concentrate with LECI-TECH® to obtain stock solutions at reduced application rates for each herbicide. Spray solutions of the herbicide combinations (Compound A or Compound B plus synthetic auxin herbicide or auxin transport inhibitor) were prepared by adding weighed amounts or aliquots of the synthetic auxin herbicide or auxin transport inhibitor to the stock solutions of Compound A or Compound B to form 12-mL spray solutions in two-way combinations.
(§3) The spray solutions were applied to the plant material with an overhead Mandel track sprayer equipped with 8002E nozzles calibrated to deliver 187 L/ha over an application area of 0.503 square meters (m^2) at a spray height of 18 inches (43 centimeters (cm)) above the average plant canopy. Control plants were sprayed in the same manner with the solvent blank. All pyridine carboxylate herbicide (component a) application rates are given as “g ae/ha” and all synthetic auxin herbicide or auxin transport inhibitor (component b) application rates are given as “g ai/ha.”
(§4) The treated plants and control plants were placed in a greenhouse as described above and watered by sub-irrigation to prevent wash-off of the test compounds. After 20-22 d, the condition of the test plants as compared with that of the control plants was determined visually and scored on a scale of 0 to 100 percent where 0 corresponds to no injury and 100 corresponds to complete kill.

[3] = system: Leptochloa chinensis (Chinese sprangletop, LEFCH); assay: Greenhouse postemergence trial LEFCH; assay type: in vivo; settings: Compound A 10 g/ha
Experimental: as §1
Emulsifiable concentrates of each of each pyridine carboxylate herbicide (Compound A or Compound B) were prepared at 100 grams acid equivalent per liter (g ae/L). The emulsifiable concentrates also included a safener, cloquintocet-mexyl, at 120 grams active ingredient per liter (g ai/L), unless otherwise noted below. An aliquot of each emulsifiable concentrate was placed in a 25 mL glass vial and diluted with an aqueous mixture of 1.25% (v/v) ACTIROB® B esterified rapeseed oil (Bayer Crop Science, Research Triangle Park, NC, USA) or MSO® Concentrate with LECI-TECH® methylated soybean oil (Loveland Products, Loveland, CO, USA) to obtain concentrated stock solutions at the highest application rate for each herbicide, based upon a 12 milliliter (mL) application volume at a rate of 187 liters per hectare (L/ha). The concentrated stock solutions were further diluted with an aqueous mixture of 1.25% v/v ACTIROB® B or MSO® Concentrate with LECI-TECH® to obtain stock solutions at reduced application rates for each herbicide. Spray solutions of the herbicide combinations (Compound A or Compound B plus synthetic auxin herbicide or auxin transport inhibitor) were prepared by adding weighed amounts or aliquots of the synthetic auxin herbicide or auxin transport inhibitor to the stock solutions of Compound A or Compound B to form 12-mL spray solutions in two-way combinations. […]
as §4

[4] = system: Lolium multiflorum (Italian ryegrass, LOLMU); assay: Greenhouse postemergence trial LOLMU; assay type: in vivo; settings: Compound A 10 g/ha
Experimental: as §1, §2, §3, §4

[5] = system: Sinapis arvensis (wild mustard, SINAR); assay: Greenhouse postemergence trial SINAR; assay type: in vivo
[6] = system: Helianthus annuus (common sunflower, HELAN); assay: Greenhouse postemergence trial HELAN; assay type: in vivo; settings: Compound A 10 g/ha
Experimental: as §1, §2, §3, §4

[7] = system: Lamium purpureum (purple deadnettle, LAMPU); assay: Greenhouse postemergence trial LAMPU; settings: for % visual injury, Obs: applied alone
Experimental: The plants were grown for 7-36 days (d) in a greenhouse with an approximate 14-hour (h) photo-period which was maintained at about 23° C. during the day and 22° C. during the night. Nutrients and water were added on a regular basis and supplemental lighting was provided with overhead metal halide 1000-Watt lamps as necessary. The plants were employed for testing when they reached the second or third true leaf stage.
The emulsifiable concentrates also included a safener, cloquintocet-mexyl, at 120 grams active ingredient per liter (g ai/L), unless otherwise noted below.
Control plants were sprayed in the same manner with the solvent blank. All pyridine carboxylate herbicide (component a) application rates are given as “g ae/ha” and all synthetic auxin herbicide or auxin transport inhibitor (component b) application rates are given as “g ai/ha.”
as §4

[8] = system: Matricaria discoidea (pineapple weed, MATMT); assay: Greenhouse postemergence trial MATMT; assay type: in vivo; settings: MATMT; for % visual injury Obs: alone; for % visual injury, Obs: applied alone
[9] = system: Anthemis arvensis (field chamomile, ANTAR); assay: Greenhouse postemergence trial ANTAR; assay type: in vivo; settings: ANTAR
[10] = Lamium purpureum, post-emergence, read-out: % visual injury Obs

N#CCOC(=O)c1nc(-c2ccc3cc[nH]c3c2F)c(F)c(N)c1Cl [Compound A, cyanomethyl 4-amino-3-chloro-5-fluoro-6-(7-fluoro-1H-indol-6-yl)pyridine-2-carboxylate]
90%: pest or weed control at […] ([5]; Mutarda arvensis, post-emergence, SINAR, Compound A 7.5 g/ha, read-out: % visual injury Obs) | pest or weed control at 10 g/ha ([5]; Mutarda arvensis, post-emergence, SINAR, Compound A 10 g/ha, read-out: % visual injury Obs) | % visual injury Obs ([5]; SINAR, Compound A 10 g/ha) | visual injury, Obs ([5]; SINAR, Compound A 10 g/ha alone) | % visual injury Obs ([5]; SINAR, alone, 10 g/ha) | % visual injury (Obs) ([7]; LAMPU, alone 10 g/ha)
100%: SINAR % visual injury Obs ([5]; Compound A 10 g/ha (Table 42)) | SINAR % visual injury Obs ([5]; Compound A 10 g/ha (Table 43)) | SINAR % visual injury Obs ([5]; Compound A 10 g/ha (Table 44)) | pest or weed control at 15 g/ha ([5]; Mutarda arvensis, post-emergence, SINAR, Compound A 15 g/ha, read-out: % visual injury Obs) | visual injury, Obs ([5]; SINAR, Compound A 15 g/ha alone) | % visual injury Obs ([5]; SINAR, alone, 15 g/ha) | % visual injury, Obs ([5]; SINAR, applied alone, 15 g/ha) | HELAN Obs (% visual injury) ([6]; without safener) | % visual injury, Obs ([6]; HELAN) | visual injury, Obs ([9]; Compound A 10 g/ha alone) | visual injury, Obs ([9]; Compound A 15 g/ha alone)
70%: visual injury, Obs ([7]; LAMPU, Compound A 10 g/ha alone) | % visual injury Obs ([7]; LAMPU, alone 10 g/ha) | % visual injury, Obs ([7]; LAMPU, 10 g/ha) | pest or weed control at 10 g/ha [7, 10]
100% and 90%: SINAR Obs (% visual injury) ([5]; Compound A 10 g/ha)
0%: LEFCH Obs (% visual injury) ([3]; without safener) | % visual injury, Obs ([3]; LEFCH) | LOLMU Obs (% visual injury) [4] | LOLMU Obs (% visual injury) ([4]; without safener) | % visual injury, Obs ([4]; LOLMU)
90% and 88%: % visual injury (Obs) ([5]; SINAR, alone, 10 g/ha) | % visual injury, Obs ([5]; SINAR, applied alone, 10 g/ha)
100% and 88%: % visual injury, Obs ([5]; SINAR, Compound A 10 g/ha)
75%: % visual injury Obs ([2]; Compound A 10 g/ha) | visual injury, Obs ([2]; Compound A 10 g/ha alone) | % visual injury Obs ([2]; alone, 10 g/ha) | % visual injury, Obs ([2]; 10 g/ha) | pest or weed control at 10 g/ha ([2]; Veronica hederifolia, post-emergence, Compound A 10 g/ha, read-out: % visual injury Obs) | % visual injury Obs ([7]; LAMPU, Compound A 15 g/ha) | visual injury, Obs ([7]; LAMPU, Compound A 15 g/ha alone) | % visual injury Obs ([7]; LAMPU, alone, 15 g/ha) | % visual injury, Obs ([7]; LAMPU, 15 g/ha) | pest or weed control at 15 g/ha [7, 10]
95%: % visual injury Obs ([1]; Compound A 15 g/ha) | visual injury, Obs ([1]; Compound A 15 g/ha alone) | % visual injury Obs ([1]; alone, 15 g/ha) | % visual injury, Obs ([1]; 15 g/ha) | pest or weed control at 15 g/ha ([1]; Veronica persica, post-emergence, VERVE, Compound A 15 g/ha, read-out: % visual injury Obs)
85%: % visual injury Obs ([1]; Compound A 10 g/ha) | visual injury, Obs ([1]; Compound A 10 g/ha alone) | % visual injury Obs ([1]; alone, 10 g/ha) | % visual injury, Obs ([1]; 10 g/ha) | pest or weed control at 10 g/ha ([1]; Veronica persica, post-emergence, VERVE, Compound A 10 g/ha, read-out: % visual injury Obs)
65%: pest or weed control at […] ([2]; Veronica hederifolia, post-emergence, Compound A 7.5 g/ha, read-out: % visual injury Obs)
5%: visual injury, Obs ([8]; Compound A 10 g/ha alone) | % visual injury Obs ([8]; 10 g/ha) | % visual injury, Obs ([8]; 10 g/ha) | pest or weed control at […] ([8]; Matricaria discoidea, post-emergence, Compound A 7.5 g/ha, read-out: % visual injury Obs) | pest or weed control at 10 g/ha ([8]; Matricaria discoidea, post-emergence, Compound A 10 g/ha, read-out: % visual injury Obs)
80%: pest or weed control at […] ([1]; Veronica persica, post-emergence, VERVE, Compound A 7.5 g/ha, read-out: % visual injury Obs) | visual injury, Obs ([2]; Compound A 15 g/ha alone) | % visual injury Obs ([2]; alone, 15 g/ha) | % visual injury, Obs ([2]; 15 g/ha) | pest or weed control at 15 g/ha ([2]; Veronica hederifolia, post-emergence, Compound A 15 g/ha, read-out: % visual injury Obs)
15%: visual injury, Obs ([8]; Compound A 15 g/ha alone) | % visual injury Obs ([8]; 15 g/ha) | % visual injury, Obs ([8]; 15 g/ha) | pest or weed control at 15 g/ha ([8]; Matricaria discoidea, post-emergence, Compound A 15 g/ha, read-out: % visual injury Obs)
